The term IC50 denotes the midpoint of a concentration-inhibition curve.

Where only a bound is given, the exact number is not on record here.

The first test has as its target T1, Human complement C1s enzyme (Homo sapiens, UniProt P09871).
T1 sequence (P09871 438-688 limits assumed): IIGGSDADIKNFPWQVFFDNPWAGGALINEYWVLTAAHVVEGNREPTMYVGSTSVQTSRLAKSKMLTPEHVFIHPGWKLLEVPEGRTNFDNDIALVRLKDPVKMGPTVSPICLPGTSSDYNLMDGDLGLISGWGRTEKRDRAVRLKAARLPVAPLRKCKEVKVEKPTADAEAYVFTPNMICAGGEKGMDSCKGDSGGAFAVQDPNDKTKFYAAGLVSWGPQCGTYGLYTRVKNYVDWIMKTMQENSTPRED
T1 sequence (P09871 16-437 partner limits assumed): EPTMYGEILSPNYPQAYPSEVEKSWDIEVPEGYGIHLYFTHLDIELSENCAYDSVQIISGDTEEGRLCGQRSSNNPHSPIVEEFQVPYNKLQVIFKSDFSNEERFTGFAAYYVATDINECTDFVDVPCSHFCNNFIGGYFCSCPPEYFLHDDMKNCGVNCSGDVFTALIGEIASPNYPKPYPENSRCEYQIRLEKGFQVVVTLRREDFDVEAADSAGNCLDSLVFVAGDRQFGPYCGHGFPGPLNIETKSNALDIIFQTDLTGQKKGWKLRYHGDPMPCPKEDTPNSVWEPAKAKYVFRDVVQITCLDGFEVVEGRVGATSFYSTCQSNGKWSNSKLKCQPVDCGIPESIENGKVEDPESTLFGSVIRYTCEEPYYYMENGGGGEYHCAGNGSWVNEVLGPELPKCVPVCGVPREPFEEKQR
Description: Human C1s enzyme assay. The format is biochemical.
Details: not given
Put shortly: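 Serum-purified human C1s (1.16 nM final) preincubated 5 min at room temperature with compound in 50 mM Tris, 1 M NaCl, pH 7.5. Z-L-Lys-SBzl and DTNB added at 100 μM each; A405 followed every 30 s for 30 min, and IC50 obtained by nonlinear regression of reaction rates.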
For the compound `C[C@@H](NC(=O)[C@@H]1C[Si](C)(C)CN1C(=O)CNC(=O)c1ccc2c(c1)Oc1ccccc1S2)c1cc2cnccc2[nH]1` [Compound 168, (R)-N-((R)-1-(1H-pyrrolo[3,2-c]pyridin-2-yl)ethyl)-3,3-dimethyl-1-((phenoxathiine-3-carbonyl)glycyl)-1,3-azasilolidine-5-carboxamide], the IC50 is less than 0.1 µM.

The test is the same for the next values; noted with them: human complement C1s enzyme 1.16 nM, substrate Z-L-Lys-SBzl 100 μM, 5 min preincubation; read-out: IC50 (Stars), C1s Inhibiting Activity.
`C[C@@]12C[C@@H]1N(C(=O)CNC(=O)CCCOc1ccccc1)[C@H](C(=O)NCc1cnc3c(CN)cccn13)C2` [Compound 63, (1S,3S,5S)-N-((8-(aminomethyl)imidazo[1,2-a]pyridin-3-yl)methyl)-5-methyl-2-((4-phenoxybutanoyl)glycyl)-2-azabicyclo[3.1.0]hexane-3-carboxamide]: the IC50 was greater than 1 µM.

Consider `Cc1ccc(Oc2cccc(C(=O)NCC(=O)N3C[C@H](OC(F)F)C[C@H]3C(=O)NCc3cc4c(s3)CNCC4)c2)c(F)c1` [Compound 339, (2S,4R)-4-(difluoromethoxy)-1-((3-(2-fluoro-4-methylphenoxy)benzoyl)glycyl)-N-((4,5,6,7-tetrahydrothieno[2,3-c]pyridin-2-yl)methyl) pyrrolidine-2-carboxamide], for which the IC50 is less than 0.1 µM.

On to `COC[C@@]1(F)C[C@@H](C(=O)NCc2cc3cnccc3[nH]2)N(C(=O)CNC(=O)c2ccc3c(c2)-c2ccccc2C3(F)F)C1` [Compound 5, (2S,4R)-N-((1H-pyrrolo[3,2-c]pyridin-2-yl)methyl)-1-((9,9-difluoro-9H-fluorene-3-carbonyl)glycyl)-4-fluoro-4-(methoxymethyl)pyrrolidine-2-carboxamide], for which the IC50 is less than 0.1 µM.

On to `O=C(NCC(=O)N1CC2(C[C@H]1C(=O)NCc1cc3cnccc3[nH]1)OCCO2)c1ccc2[nH]c3ccccc3c2c1` [Compound 211, (S)-N-((1H-pyrrolo[3,2-c]pyridin-2-yl)methyl)-7-((9H-carbazole-3-carbonyl)glycyl)-1,4-dioxa-7-azaspiro[4.4]nonane-8-carboxamide], for which the IC50 is less than 0.1 µM.

On to `C[C@@]12C[C@@H]1N(C(=O)CNC(=O)CCCOc1ccccc1)[C@H](C(=O)NCc1cc3cnccc3[nH]1)C2` [Compound 58, (1S,3S,5S)-N-((1H-pyrrolo[3,2-c]pyridin-2-yl)methyl)-5-methyl-2-((4-phenoxybutanoyl)glycyl)-2-azabicyclo[3.1.0]hexane-3-carboxamide], for which the IC50 is less than 0.1 µM.

On to `O=C(NCC(=O)N1CC2(C[C@H]1C(=O)NCc1cc3cnccc3[nH]1)OCCO2)c1cccc(Oc2ccc(F)cc2)c1` [Compound 157, (S)-N-((1H-pyrrolo[3,2-c]pyridin-2-yl)methyl)-7-((3-(4-fluorophenoxy)benzoyl)glycyl)-1,4-dioxa-7-azaspiro[4.4]nonane-8-carboxamide], for which the IC50 is less than 0.1 µM.

For the compound `C[C@@]12C[C@@H]1N(C(=O)CNC(=O)c1ccc3c(c1)Oc1ccccc1S3)[C@H](C(=O)NCc1cc3cnccc3[nH]1)C2` [Compound 44, (1S,3S,5S)-N-((1H-pyrrolo[3,2-c]pyridin-2-yl)methyl)-5-methyl-2-((phenoxathiine-3-carbonyl)glycyl)-2-azabicyclo[3.1.0]hexane-3-carboxamide], the IC50 is less than 0.1 µM.

For `Nc1noc2cc(CNC(=O)[C@@H]3C[C@@H](OC(F)F)CN3C(=O)CNC(=O)c3ccc4c(c3)Oc3ccccc3S4)ccc12` [Compound 232, (2S,4R)-N-((3-aminobenzo[d]isoxazol-6-yl)methyl)-4-(difluoromethoxy)-1-((phenoxathiine-3-carbonyl)glycyl)pyrrolidine-2-carboxamide], the IC50 is greater than 1 µM.

As to `O=C(NCC(=O)N1C[C@@](F)(CF)C[C@H]1C(=O)NCc1cc2cnccc2[nH]1)c1ccc2c(c1)Oc1ccccc1S2` [Compound 26, (2S,4R)-N-((1H-pyrrolo[3,2-c]pyridin-2-yl)methyl)-4-fluoro-4-(fluoromethyl)-1-((phenoxathiine-3-carbonyl)glycyl)pyrrolidine-2-carboxamide], the IC50 is less than 0.1 µM.
